Results on two compounds are retold here after article PMC9635472, “Design, synthesis, and biological evaluation of novel ciprofloxacin derivatives as potential anticancer agents targeting topoisomerase II enzyme” (Journal of Enzyme Inhibition and Medicinal Chemistry, 2022).

By IC50 is commonly meant the concentration that gives 50% inhibition.

Where “and” joins values, the source holds several entries; their conditions need not be identical. Equal values may be shown once.

Assay [1] relates to PC-3 cells. The experiment in a line: Cell cycle analysis (propidium iodide flow cytometry), PC-3 cells. It counts as cell-based, human. The note with it: for phase of cell cycle arrest: PC-3 cells at IC50 concentrations. As for the experimental part: (§1) The cell cycle was done using a propidium iodide flow cytometry kit (Abcam, ab139418) according to the manufacturer’s instructions. […] After treatment, the cells were washed twice with ice-cold phosphate buffer saline, then centrifuged and fixed using ice-cold 66% (v/v) ethanol, washed with phosphate buffer saline re-suspended with 0.10 mg/ml, and stained with 200 µl propidium iodide. Cells were analysed by flow cytometry. The cell cycle distributions were calculated using cell–quest software (Bectopn Dickinson).
Topoisomerase inhibitors cause DNA damage which is related to G1/S and S phase arrest. Cell cycle arrest prevents the replication of damaged DNA. In PC-3 cell line compounds 6 and 8a probably arrested the cell cycle in the G1 phase by inhibition of Cyclin D–Cdk4–Cdks complex, however in the T-24 cell line, they might arrest the cell cycle in the S phase by the inhibition of both Cyclin D–Cdk4–Cdks complex and cyclins E1–E2/Cdk2, which promote G1/S transition.
On the technique in general: In flow cytometry, cells or beads pass a laser one at a time.

In assay [2] the test system is PC-3 cells. In words: Apoptosis determination by annexin V-FITC/PI assay, PC-3 cells. It counts as cell-based, human. The conditions noted are these: at IC50, 24 h. On the procedure: (§2) Apoptosis was evaluated using Annexin V fluorescein isothiocyanate (FITC) and propidium iodide (PI) using the Annexin V-FITC/PI apoptosis detection kit (Biovision, Mountain View, CA # K101-25). According to the manufacturer’s instructions after staining the cells with annexin V fluorescein (FITC) isothiocyanate. […] Cells were centrifuged and washed once with serum-containing media followed by resuspension in 500 µl of binding buffer. Then 5 µl Annexin V-FITC and 5 µl of (PI […]) were added and incubated for 5 min at room temperature in the dark. Analyses were performed using a flow cytometer (EX = 488 nm: Em = 530 nm) using a FITC signal detector and PI staining by a phycoerythrin emission signal detector.
While compound 8a induced both early and late apoptosis with 41.15- and 76.77-fold more than the control, respectively, and induced total apoptosis and necrosis with 14.87- and 2.44-fold more than the control, sequentially (Figure 16).

The subject of assay [3] is active caspase-3. In words: Active caspase-3 ELISA in T-24 cells. The conditions noted are these: 6 at 5.68 μM, 8a at 3.36 μM; for Caspase-3 conc. (pg/ml* ± SD): means of three experiments. The assay is classed as cell-based, human. As for the experimental part: The level of the apoptotic marker caspase-3 was measured using The Invitrogen Caspase-3 (active) Human ELISA Kit. The procedure of the used kit was done according to the manufacturer’s instructions.
Caspase-3 (a key effector enzyme) plays an important role in apoptosis since its activation leads to catalysing specific enzymes responsible for DNA fragmentation, which leads to cell death. Apoptosis induction in T-24 cells by compounds 6 and 8a was investigated via caspase 3, compared to doxorubicin as a reference drug.
On the technique in general: In an ELISA, binding on a coated surface is turned into a signal by an enzyme label.

The subject of assay [4] is Human bladder cancer (T-24) cell line. In words: MTT cell viability assay, T-24 cells. It counts as cell-based. The note with it: bladder cancer cell line T-24, treatment for 24 h (table title), means of three experiments, read-out: IC50 (μM* ± SD) T-24. As for the experimental part: (§3) Human bladder cancer (T-24) and human prostate carcinoma (PC-3) cell lines were obtained from American Type Culture Collection (ATCC; Manassas, VA USA). Cells were maintained in Dulbecco’s modified Eagle medium with 10% foetal bovine serum at 37 °C and 5% CO2. All the operations were carried out under strict aseptic conditions. The culture medium was removed to a centrifuge tube containing 9.0 ml complete culture medium and spanned at approximately 125 × g for 5 to 7 min. The cell layer was rinsed with 0.25% (w/v) trypsin- […] EDTA solution by which all traces of serum-containing inhibitor were removed. Trypsin EDTA solution 2.0 to 3.0 ml was added to a flask and cells were monitored under an inverted microscope until the cell layer was dispersed (usually within 5–15 min). A complete growth medium was added (6.0–8.0 ml), and cells were aspirated by gentle pipetting. The cell pellet was suspended with the recommended complete medium and dispensed into a 75 cm^2 culture flask. The culture vessel containing the complete growth medium was placed in the incubator for 24 h to at 37 °C. The cells were treated with different concentrations (0.39, 1.60, 6.25, 25, and 100 μg/ml) of each of the test compounds or doxorubicin, […], then the plates were examined under the inverted microscope and finally the MTT assay was carried out.
(§4) Anti-cancer activity of the newly synthesised compounds was evaluated in vitro against both T-24 and PC-3 cell lines according to the MTT method. Cells were seeded into 96-well plates (flat bottom) at a density of 10 000 cells/well for 24 h. The vial of MTT to be used was reconstituted with 3 ml of medium or balanced salt solution without phenol red and serum. then, a reconstituted MTT vial was added in an amount equal to 10% of the culture medium volume. Cultures were incubated for 2–4 h depending on the cell type and maximum cell density and removed from the incubator and the formazan crystals were dissolved via the addition of an amount of MTT solubilisation solution (M-8910) equal to the original culture medium volume. ROBONIK P2000 spectrophotometer at a wavelength of 570 nm was used to measure the colour intensity spectrophotometrically. The survival curve of both T-24 and PC-3 cells was obtained by plotting the percentage of surviving cells against the drug after each compound. The IC50 value for each test compound and the reference drug doxorubicin was calculated.
(§5) In this study, all the newly synthesised CP derivatives were subjected to anticancer activity evaluation against bladder (T-24) and prostate cancer (PC-3) cell lines. The compounds were evaluated for their activity using 5 doses determinations (100 μg/ml, 25 μg/ml, 6.25 μg/ml, 1.60 μg/ml, and 0.39 μg/ml). Their half-maximal inhibitory concentration (IC50) values were measured. Doxorubicin was chosen as a reference anticancer drug[65].

In assay [5] the test system is human prostate carcinoma (PC-3) cell line. In words: MTT cell viability assay, PC-3 cells. The assay is classed as cell-based. The conditions noted are these: prostate cancer cell line PC-3, treatment for 24 h (table title), means of three experiments, read-out: IC50 (μM* ± SD) PC-3. On the procedure:
as §3, §4, §5
(Formazan colour is commonly taken as a measure of viable cells.)

The subject of assay [6] is T-24 cells. In words: Cell cycle analysis (propidium iodide flow cytometry), T-24 cells. It counts as cell-based, human. The note with it: for phase of cell cycle arrest: T-24 cancer cells. On the procedure: as §1
While the accumulation of the cells in the S phase might result from the cell cycle arrest of T-24 cells in the S phase.

Assay [7] has as its system T-24 cells. The experiment in a line: Apoptosis determination by annexin V-FITC/PI assay, T-24 cells. The assay is classed as cell-based, human. The note with it: at IC50, 24 h. On the procedure: as §2
To verify the ability of compounds 6 and 8a to induce apoptosis, a flow cytometry assay was performed using propidium iodide (PI), and immunofluorescent markers of the protein annexin-V. Dual staining for annexin-V and with PI provides the distinction between viable cells, early apoptotic cells, late apoptotic cells, and necrotic cells. […] While compound 8a induced both early and late apoptosis with 21.16- and 114.90-fold more than the control, respectively, and induced total apoptosis and necrosis with 20.1- and 4.28-fold more than the control, sequentially (Figure 14).

With `O=C(CN1CCN(c2cc3c(cc2F)c(=O)c(C(=O)O)cn3C2CC2)CC1)NN=C1C(=O)Nc2ccccc21` [Compound 8a, 1-Cyclopropyl-6-fluoro-4-oxo-7-(4-(2-oxo-2-(2-(2-oxoindolin-3-ylidene)hydrazinyl)ethyl)piperazin-1-yl)-1,4-dihydroquinoline-3-carboxylic acid], in assay [1], the “phase of cell cycle arrest” value is on record as “G1-phase cell cycle arrest”. Besides, the “increase in the percentage of cells at the G1 phase compared to the control” value in assay [1] (PC-3 cells, at IC50, 24 h) is on record as 1.27 fold. Also, in assay [2], the “early apoptosis, fold more than the control” value turned out to be 41.15 fold; the “late apoptosis, fold more than the control” value is listed as 76.77 fold; the “necrosis, fold more than the control” value is given as 2.44 fold; the “total apoptosis, fold more than the control” value was 14.87 fold. In assay [3], the “increase in level of active caspase-3 compared to the control” value stood at 7.6 fold and the “Caspase-3 conc. (pg/ml* ± SD)” value was determined as 527.6 ± 8.39 pg/mL. The IC50 in assay [4] is 3.36 ± 0.19 µM. Besides, the IC50 in assay [5] is 11 ± 0.56 µM. Also, in assay [6], the “phase of cell cycle arrest” value was “S phase”. Besides, in assay [6] (T-24 cells, at IC50, 24 h), the “increase in the percentage of cells at pre-G1 compared to the control” value is given as 20.1 fold and the “increase in the percentage of cells in the S phase compared to the control” value is on record as 1.11 fold. Besides, in assay [7], the “early apoptosis, fold more than the control” value amounted to 21.16 fold; the “late apoptosis, fold more than the control” value stood at 114.90 fold; the “necrosis, fold more than the control” value is listed as 4.28 fold; the “total apoptosis, fold more than the control” value is reported as 20.1 fold.

In the case of `O=C1CC(=O)N(C(=O)CN2CCN(c3cc4c(cc3F)c(=O)c(C(=O)O)cn4C3CC3)CC2)N1` [Compound 6, 1-cyclopropyl-7-(4-(2-(3,5-dioxopyrazolidin-1-yl)-2-oxoethyl)piperazin-1-yl)-6-fluoro-4-oxo-1,4-dihydroquinoline-3-carboxylic acid], the “phase of cell cycle arrest” value in assay [1] is reported as “G1-phase cell cycle arrest”. For the same compound, in assay [1] (PC-3 cells, at IC50, 24 h), the “decrease in the percentage of cells at the G2/M phase” value was found to be 1.5 fold and the “increase in the percentage of cells at the G1 phase compared to the control” value is 1.16 fold. Also, in assay [2], the “early apoptosis, fold more than the control” value is 54.69 fold; the “late apoptosis, fold more than the control” value was determined as 31.72 fold; the “necrosis, fold more than the control” value was determined as 1.62 fold; the “total apoptosis, fold more than the control” value is listed as 13.02 fold. Also, in assay [3], the “increase in level of active caspase-3 compared to the control” value worked out at 5.23 fold and the “Caspase-3 conc. (pg/ml* ± SD)” value worked out at 362.9 ± 8.58 pg/mL. In assay [4], the IC50 came out at 5.68 ± 0.3 µM. For the same compound, the IC50 in assay [5] is 92.2 ± 4.69 µM. Further, the “phase of cell cycle arrest” value in assay [6] was “S phase”. Also, the “increase in the percentage of cells in the S phase compared to the control” value in assay [6] (T-24 cells, at IC50, 24 h) is given as 1.4 fold. In assay [7], the “early apoptosis, fold more than the control” value is 16.27 fold; the “late apoptosis, fold more than the control” value came to 83.38 fold; the “necrosis, fold more than the control” value came to 6.25 fold; the “total apoptosis, fold more than the control” value was 16.77 fold and 16.8 fold.
